According to patent US20210355121A1, “FUSED TRICYCLIC KRAS INHIBITORS” (Incyte Corporation, priority 2020, published 2021):
Read-outs that look alike come from different tables or passages of the source.

Columns and labels:
KRAS G12C = KRAS G12C (Homo sapiens, UniProt P01116, G12C); test: KRAS G12C GDP-GTP exchange assay (bodipy-GDP for GppNHp, with SOS1); assay type: biochemical; conditions: 2.5 nM bodipy-loaded KRAS G12C, 2 hours pre-incubation with inhibitor, 2 hours after GppNHp-SOS1; read-out: G12C_exchange (KRAS_G12C exchange assay IC50)
Method: The inhibitor potency of the exemplified compounds was determined in a fluorescence based guanine nucleotide exchange assay, which measures the exchange of bodipy-GDP (fluorescently labeled GDP) for GppNHp (Non-hydrolyzable GTP analog) to generate the active state of KRAS in the presence of SOS1 (guanine nucleotide exchange factor). Inhibitors were serially diluted in DMSO and a volume of 0.1 μL was transferred to the wells of a black low volume 384-well plate. 5 μL/well volume of bodipy-loaded KRAS G12C diluted to 5 nM in assay buffer (25 mM Hepes pH 7.5, 50 mM NaCl, 10 mM MgCl2 and 0.01% Brij-35) was added to the plate and pre-incubated with inhibitor for 2 hours at ambient temperature. Appropriate controls (enzyme with no inhibitor or with a G12C inhibitor (AMG-510)) were included on the plate. The exchange was initiated by the addition of a 5 μL/well volume containing 1 mM GppNHp and 300 nM SOS1 in assay buffer. The 10 μL/well reaction concentration of the bodipy-loaded KRAS G12C, GppNHp, and SOS1 were 2.5 nM, 500 uM, and 150 nM, respectively. The reaction plates were incubated at ambient temperature for 2 hours, a time estimated for complete GDP-GTP exchange in the absence of inhibitor. For the KRAS G12D and G12V mutants, similar guanine nucleotide exchange assays were used with 2.5 nM as final concentration for the bodipy loaded KRAS proteins and with 4 hours and 3 hours incubation after adding GppNHp-SOS1 mixture for G12D and G12V respectively. A cyclic peptide described to selectively bind G12D mutant (Sakamoto et al., BBRC 484.3 (2017), 605-611) or internal compounds with confirmed binding were used as positive controls in the assay plates. Fluorescence intensities were measured on a PheraStar plate reader instrument (BMG Labtech) with excitation at 485 nm and emission at 520 nm.
Either GraphPad prism or XLfit was used to analyze the data. The IC50 values were derived by fitting the data to a four parameter logistic equation producing a sigmoidal dose-response curve with a variable Hill coefficient. Prism equation: Y=Bottom+(Top−Bottom)/(1+10^((Log IC50−X)*Hill slope)); XLfit equation: Y=(A+((B−A)/(1+((X/C)^D)))) where X is the logarithm of inhibitor concentration and Y is the response.

[1] = system: MIA PaCa-2 (KRAS G12C) cells; test: KRAS_G12C cellular pERK HTRF assay; assay type: cell-based, human; conditions: phospho-ERK1/2 HTRF, 4 hours incubation, read-out: G12C_pERK (KRAS_G12C pERK assay IC50)
Method: MIA PaCa-2 (KRAS G12C; ATCC® CRL-1420), A427 (KRAS G12D; ATCC® HTB53), HPAF-II (KRAS G12D; ATCC® CRL-1997) and NCI-H838 (KRAS WT; ATCC® CRL-5844) cells are purchased from ATCC and maintained in RPMI 1640 media supplemented with 10% FBS (Gibco/Life Technologies). The cells are plated at 5000 cells per well (8 uL) into Greiner 384-well low volume, flat-bottom, tissue culture treated white plates and incubated overnight at 37° C., 5% CO2. The next morning, test compound stock solutions are diluted in media at 3× the final concentration, and 4 uL are added to the cells. The plate is mixed by gentle rotation for 30 seconds (250 rpm) at room temperature. The cells are incubated with the KRAS G12C and G12D compounds for 4 hours or 2 hours respectively at 37° C., 5% CO2.
4 uL of 4× lysis buffer with blocking reagent (1:25) (Cisbio) are added to each well and plates are rotated gently (300 rpm) for 30 minutes at room temperature. 4 uL per well of Cisbio anti Phospho-ERK 1/2 d2 is mixed with anti Phospho-ERK 1/2 Cryptate (1:1) are added to each well, mixed by rotation and incubated overnight in the dark at room temperature. Plates are read on the Pherastar plate reader at 665 nm and 620 nm wavelengths. IC50 determination is performed by fitting the curve of inhibitor percent inhibition versus the log of the inhibitor concentration using the GraphPad Prism 7 software.

KRAS G12C, sequence (P01116 1-188 isoform P01116-2 G12C): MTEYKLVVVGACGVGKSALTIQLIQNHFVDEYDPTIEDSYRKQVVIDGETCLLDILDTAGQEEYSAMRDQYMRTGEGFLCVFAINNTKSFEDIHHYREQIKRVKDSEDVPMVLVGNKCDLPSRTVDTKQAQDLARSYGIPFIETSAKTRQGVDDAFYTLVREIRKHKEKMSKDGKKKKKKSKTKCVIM

SMILES | IC50 (KRAS G12C) [nM] | IC50 ([1]; Homo sapiens, MIA PaCa-2) [nM] | IC50 [1] [nM]
Cc1c(Cl)cc2[nH]ncc2c1-c1c(Cl)cc2c(nc(N3CC(C)(N(C)C)C3)c3cnn([C@H]4CCN(C(=O)/C=C/CF)[C@H](CC#N)C4)c32)c1F (single isomer, unassigned) [Example 13a] | ≤ 100 | ≤ 100 | –
Cc1c(Cl)cc2[nH]ncc2c1-c1c(Cl)cc2c(nc(OC[C@@H]3CCCN3C)c3cnn([C@H]4CCN(C(=O)/C=C/CN(C)C)[C@H](CC#N)C4)c32)c1F (single isomer, unassigned) [Example 17a] | ≤ 100 | ≤ 100 | –
COC/C=C/C(=O)N1CC[C@H](n2ncc3c(OC[C@@H]4CCCN4C)nc4c(F)c(-c5c(C)c(Cl)cc6[nH]ncc56)c(Cl)cc4c32)C[C@H]1CC#N (single isomer, unassigned) [Example 19a] | ≤ 100 | ≤ 100 | –
C=CC(=O)N1CC[C@H](n2ncc3c(OC[C@@H]4CCCN4C)nc4c(F)c(-c5c(C)c(Cl)cc6[nH]ncc56)c(Cl)cc4c32)C[C@H]1CC#N (single isomer, unassigned) [Example 20a] | ≤ 100 | ≤ 100 | –
COC/C=C/C(=O)N1CC[C@H](n2ccc3c(OC[C@@H]4CCCN4C)nc4c(F)c(-c5c(C)c(C)cc6[nH]ncc56)c(Cl)cc4c32)C[C@H]1CC#N (single isomer, unassigned) [Example 47a] | ≤ 100 | ≤ 100 | –
Cc1cc2c(nc(OC[C@@H]3CCCN3C)c3cnn([C@H]4CCN(C(=O)/C=C/CF)[C@H](CC#N)C4)c32)c(F)c1-c1cccc2cccc(C#N)c12 (single isomer, unassigned) [Example 51a] | ≤ 100 | ≤ 100 | –
C=C(F)C(=O)N1CC[C@H](n2ncc3c(OC[C@@H]4CCCN4C)nc4c(F)c(-c5cccc6cccc(C#N)c56)c(C)cc4c32)C[C@H]1CC#N (single isomer, unassigned) [Example 52a] | ≤ 100 | ≤ 100 | –
CC#CC(=O)N1CC[C@H](n2ncc3c(OC[C@@H]4CCCN4C)nc4c(F)c(-c5cccc6cccc(C#N)c56)c(C)cc4c32)C[C@H]1CC#N (single isomer, unassigned) [Example 53a] | ≤ 100 | ≤ 100 | –
COC/C=C/C(=O)N1CC[C@H](n2ncc3c(OC[C@@H]4CCCN4C)nc4c(F)c(-c5cccc6cccc(C#N)c56)c(C)cc4c32)C[C@H]1CC#N (single isomer, unassigned) [Example 54a] | ≤ 100 | ≤ 100 | –
Cc1cc2c(nc(O[C@@H](C)[C@@H]3CCCN3C)c3cnn([C@H]4CCN(C(=O)/C=C/CF)[C@H](CC#N)C4)c32)c(F)c1-c1cccc2cccc(C#N)c12 (single isomer, unassigned) [Example 55b] | ≤ 100 | ≤ 100 | –
C=C(F)C(=O)N1CC[C@H](n2ncc3c(O[C@@H](C)[C@@H]4CCCN4C)nc4c(F)c(-c5cccc6cccc(C#N)c56)c(C)cc4c32)C[C@H]1CC#N (single isomer, unassigned) [Example 56b] | ≤ 100 | ≤ 100 | –
COC/C=C/C(=O)N1CC[C@H](n2ncc3c(O[C@@H](C)[C@@H]4CCCN4C)nc4c(F)c(-c5cccc6cccc(C#N)c56)c(C)cc4c32)C[C@H]1CC#N (single isomer, unassigned) [Example 57b] | ≤ 100 | ≤ 100 | –
Cc1cc2c(nc(N3CC(C)(N(C)C)C3)c3cnn([C@H]4CCN(C(=O)/C=C/CF)[C@H](CC#N)C4)c32)c(F)c1-c1cccc2cccc(C#N)c12 (single isomer, unassigned) [Example 58a] | ≤ 100 | ≤ 100 | –
C=C(F)C(=O)N1CC[C@H](n2ncc3c(N4CC(C)(N(C)C)C4)nc4c(F)c(-c5cccc6cccc(C#N)c56)c(C)cc4c32)C[C@H]1CC#N (single isomer, unassigned) [Example 59a] | ≤ 100 | ≤ 100 | –
COC/C=C/C(=O)N1CC[C@H](n2ncc3c(N4CC(C)(N(C)C)C4)nc4c(F)c(-c5cccc6cccc(C#N)c56)c(C)cc4c32)C[C@H]1CC#N (single isomer, unassigned) [Example 61a] | ≤ 100 | ≤ 100 | –
Cc1cc2c(nc(N3CC(C)(N(C)C)C3)c3cnn([C@H]4CCN(C(=O)/C=C/CN(C)C)[C@H](CC#N)C4)c32)c(F)c1-c1cccc2cccc(C#N)c12 (single isomer, unassigned) [Example 62a] | ≤ 100 | ≤ 100 | –

Continued, values first:

IC50 (KRAS G12C) [nM] | IC50 ([1]; Homo sapiens, MIA PaCa-2) [nM] | IC50 [1] [nM] | SMILES
≤ 100 | ≤ 100 | – | Cc1c(Cl)cc2[nH]ncc2c1-c1c(Cl)cc2c(nc(N3CC(C)(N(C)C)C3)c3cnn([C@H]4CCN(C(=O)/C=C/C(F)F)[C@H](CC#N)C4)c32)c1F (single isomer, unassigned) [Example 14a]
≤ 100 | ≤ 100 | – | C=C(F)C(=O)N1CC[C@H](n2ncc3c(N4CC(C)(N(C)C)C4)nc4c(F)c(-c5c(C)c(Cl)cc6[nH]ncc56)c(Cl)cc4c32)C[C@H]1CC#N (single isomer, unassigned) [Example 15a]
≤ 100 | ≤ 100 | – | C=CC(=O)N1CC[C@H](n2ncc3c(N4CC(C)(N(C)C)C4)nc4c(F)c(-c5c(C)c(Cl)cc6[nH]ncc56)c(Cl)cc4c32)C[C@H]1CC#N (single isomer, unassigned) [Example 16a]
≤ 100 | ≤ 100 | – | CC#CC(=O)N1CC[C@H](n2ncc3c(OC[C@@H]4CCCN4C)nc4c(F)c(-c5c(C)c(Cl)cc6[nH]ncc56)c(Cl)cc4c32)C[C@H]1CC#N (single isomer, unassigned) [Example 18a]
≤ 100 | ≤ 100 | – | C=CC(=O)N1CC[C@H](n2ncc3c(N4CC(N(C)C)C4)nc4c(F)c(-c5ccc(F)c6cccnc56)c(Cl)cc4c32)C[C@H]1CC#N (single isomer, unassigned) [Example 21a]
≤ 100 | – | ≤ 100 | C=CC(=O)N1CC[C@H](n2ncc3c(N4CC(N(C)C)C4)nc4c(F)c(-c5ccc(F)c6cccnc56)c(Cl)cc4c32)C[C@H]1CC#N (single isomer, unassigned) [Example 21b]
≤ 100 | ≤ 100 | – | C=CC(=O)N1CC[C@H](n2ncc3c(N4CC(N(C)C)C4)nc4c(F)c(-c5cccc(Cl)c5Cl)c(Cl)cc4c32)C[C@H]1CC#N (single isomer, unassigned) [Example 25a]
≤ 100 | – | ≤ 100 | C=CC(=O)N1CC[C@H](n2ncc3c(N4CC(N(C)C)C4)nc4c(F)c(-c5cccc(Cl)c5Cl)c(Cl)cc4c32)C[C@H]1CC#N (single isomer, unassigned) [Example 25b]
≤ 100 | ≤ 100 | – | CC#CC(=O)N1CC[C@H](n2ncc3c(N4CC(N(C)C)C4)nc4c(F)c(-c5cccc(Cl)c5Cl)c(Cl)cc4c32)C[C@H]1CC#N (single isomer, unassigned) [Example 26a]
≤ 100 | – | ≤ 100 | CC#CC(=O)N1CC[C@H](n2ncc3c(N4CC(N(C)C)C4)nc4c(F)c(-c5cccc(Cl)c5Cl)c(Cl)cc4c32)C[C@H]1CC#N (single isomer, unassigned) [Example 26b]
≤ 100 | ≤ 100 | – | CC#CC(=O)N1CC[C@H](n2ncc3c(N4CC(C)(N(C)C)C4)nc4c(F)c(-c5cccc6cccc(C#N)c56)c(C)cc4c32)C[C@H]1CC#N (single isomer, unassigned) [Example 60a]
